Reference: patent publication US20260337246A1, “METHODS FOR TREATING OBESITY” (Zealand Pharma A/S, priority 2022, published 2026)

Experiment: Predicted half-life in humans

For `CC[C@H](C)[C@H](NC(=O)[C@H](Cc1ccccc1)NC(=O)[C@H](C)NC(=O)[C@H](CCC(N)=O)NC(=O)[C@H](C)NC(=O)[C@H](C)NC(=O)[C@H](CCCCNC(=O)COCCOCCNC(=O)COCCOCCNC(=O)CN1CCN(C(=O)CCCCCCCCCCCCCCCCCCC(=O)O)CC1)NC(=O)[C@H](CCCCN)NC(=O)[C@H](CC(=O)O)NC(=O)[C@H](CC(C)C)NC(=O)[C@H](CCC(=O)O)NC(=O)[C@@H](NC(=O)[C@H](CO)NC(=O)[C@H](Cc1ccc(O)cc1)NC(=O)[C@H](CC(=O)O)NC(=O)[C@H](CO)NC(=O)[C@@H](NC(=O)[C@H](Cc1ccccc1)NC(=O)[C@@H](NC(=O)CNC(=O)[C@H](CCC(=O)O)NC(=O)C(C)(C)NC(=O)[C@@H](N)Cc1ccc(O)cc1)[C@@H](C)O)[C@@H](C)CC)[C@@H](C)CC)C(=O)N[C@@H](CCC(=O)O)C(=O)N[C@@H](Cc1c[nH]c2ccccc12)C(=O)N[C@@H](CC(C)C)C(=O)N[C@@H](CC(C)C)C(=O)N[C@@H](C)C(=O)N[C@@H](CCC(N)=O)C(=O)NCC(=O)N1CCC[C@H]1C(=O)N[C@@H](CO)C(=O)N[C@@H](CO)C(=O)NCC(=O)N[C@@H](C)C(=O)N1CCC[C@H]1C(=O)N1CCC[C@H]1C(=O)N1CCC[C@H]1C(=O)N[C@@H](CO)C(N)=O` [Compound 41], which “predicted half-life (in words)” value is on record?
Its value is “half-life supporting once-weekly dosing in humans”.
